Results reported in patent US20210132065A1, “MAMMALIAN MHC PEPTIDE DISPLAY AS AN EPITOPE SELECTION TOOL FOR VACCINE DESIGN” (ETH Zürich, priority 2018, published 2021).
Read-outs that look alike come from different tables or passages of the source. Where no end group is shown, it is not given here.

Experiments:
HLA DRB 1-4 = settings: published studies; cited from earlier work
HLA-DRB1_4 = type: cell-based, human; settings: for MCR surface expression: peptide covalently linked to beta chain, anti-HLA-DR APC antibody, FACS

Row | Substance | presentation by HLA (HLA DRB 1-4) | MCR surface expression (HLA-DRB1_4) | further results
1 | MP1 103-117: MP1 peptide comprising amino acids 103-117, known from published studies (Schmid et al Immunity 2007) (LKREITFHGAKEISL; UniProt P03485 103-117, looked up, fragment) | efficiently presented | – | –
2 | MP1 107-121: MP1 peptide comprising amino acids 107-121, known from published studies (Schmid et al Immunity 2007) (ITFHGAKEISLSYSA; UniProt P03485 107-121, looked up, fragment) | efficiently presented | – | –
3 | MP162-72: influenza Matrix Protein 1-derived peptide comprising amino acids 62-72, covalently linked to the HLA beta chain of the MCR (FVFTLTVPSER; also: covalently linked to HLA beta chain of the MCR; UniProt P03485 62-72, looked up, fragment) | – | not the other HLAs tested | –
4 | MP1103-120: influenza Matrix Protein 1 peptide, amino acids 103-120, covalently linked to the HLA beta chain of the MCR (LKREITFHGAKEISLSYS; also: covalently linked to HLA beta chain of the MCR; UniProt P03485 103-120, looked up, fragment) | – | efficient surface expression | MCR surface expression (HLA-DRB1_4; listed as MP1103-121): high surface expression
5 | MP1107-117: core epitope of influenza Matrix Protein 1, amino acids 107-117, tested within peptides with different flanking regions (ITFHGAKEISL; UniProt P03485 107-117, looked up, fragment) | – | – | presentation (MCR surface expression) (HLA-DRB1_4; FIG. 6, anti-CD3e or anti-HLA-DR PE antibodies, peptides containing the core epitope with different flanking regions): efficiently be presented
